For data set [1], the target named is HER1(ErbB1) (Homo sapiens, UniProt P00533). Briefly: In vitro enzyme activity, HER1 (radiometric, Eurofins). To be noted: conclusion. The format is biochemical. Here is the method: (§1) The purpose of this assay is to detect the in vitro inhibitory activity of compounds on HER1(ErbB1), HER2(ErbB2), and HER4(ErbB4). The enzymes used in this assay are human ErbB 1, ErbB2 and ErbB4. Eurofins Pharma Discovery Service provided the method for activity detection. Steps and method of the assay (96-well plate): A buffer solution of the assay compounds in a dilution of 5-fold (5 μL), polypeptide substrate poly(Glu, Tyr) (4:1) (2.5 μL), ErbB (4-20 ng, 2.5 μL), MnCl2 (50 mM, 1.25 μL), dH2O (3.75 μL), and [γ-^33P]ATP (10 μL) were added, and incubated at 30° C. for 10 minutes. The reaction was terminated by adding 3% phosphoric acid. 10 μL of the sample was taken and transferred to Filtermate A. The filter disc was washed 3 times with 75 mM phosphoric acid and once with methanol. The filter disc was transferred to a sealed plastic bag and the scintillation mixture (4 mL) was added. The intensity of the emitted photon was detected by a scintillation luminescence counter. The CPM (times/min) of the enzyme sample was compared with the CPM of the internal control sample. The level of photon intensity reflected the degree of the tyrosine kinase activity.
Chain of HER1(ErbB1) (P00533 25-1210): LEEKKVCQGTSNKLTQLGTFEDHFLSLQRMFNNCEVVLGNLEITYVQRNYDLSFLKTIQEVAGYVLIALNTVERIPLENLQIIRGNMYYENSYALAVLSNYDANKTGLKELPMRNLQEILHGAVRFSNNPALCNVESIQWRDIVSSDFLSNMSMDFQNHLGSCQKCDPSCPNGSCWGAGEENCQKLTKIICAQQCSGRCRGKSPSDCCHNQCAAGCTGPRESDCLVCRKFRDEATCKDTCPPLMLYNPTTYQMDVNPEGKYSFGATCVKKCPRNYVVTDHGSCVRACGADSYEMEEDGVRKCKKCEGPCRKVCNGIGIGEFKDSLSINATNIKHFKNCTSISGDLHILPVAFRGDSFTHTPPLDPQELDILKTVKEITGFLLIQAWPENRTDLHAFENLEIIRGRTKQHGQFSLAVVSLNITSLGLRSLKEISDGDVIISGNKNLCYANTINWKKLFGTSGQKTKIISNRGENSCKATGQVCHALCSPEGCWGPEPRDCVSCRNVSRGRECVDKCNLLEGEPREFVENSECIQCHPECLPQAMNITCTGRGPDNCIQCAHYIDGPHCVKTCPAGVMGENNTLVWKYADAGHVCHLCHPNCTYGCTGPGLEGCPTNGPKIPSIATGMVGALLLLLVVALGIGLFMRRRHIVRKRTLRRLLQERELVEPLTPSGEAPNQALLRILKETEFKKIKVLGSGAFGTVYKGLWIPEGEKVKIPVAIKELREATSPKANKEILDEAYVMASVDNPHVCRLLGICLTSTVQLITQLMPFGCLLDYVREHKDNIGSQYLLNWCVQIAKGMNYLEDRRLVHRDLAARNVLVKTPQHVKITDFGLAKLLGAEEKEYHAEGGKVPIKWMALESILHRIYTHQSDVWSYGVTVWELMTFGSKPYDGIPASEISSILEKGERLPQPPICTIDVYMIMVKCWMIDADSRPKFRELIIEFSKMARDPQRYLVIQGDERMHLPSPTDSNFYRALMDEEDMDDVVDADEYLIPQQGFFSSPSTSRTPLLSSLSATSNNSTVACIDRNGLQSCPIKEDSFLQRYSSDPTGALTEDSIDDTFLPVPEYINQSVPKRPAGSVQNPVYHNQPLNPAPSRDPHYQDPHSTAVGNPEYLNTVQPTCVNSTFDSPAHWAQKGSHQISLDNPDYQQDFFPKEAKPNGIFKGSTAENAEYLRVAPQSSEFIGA

Data set [2] has as its target HER4(ErbB4) (Homo sapiens, UniProt Q15303). Briefly: In vitro enzyme activity, HER4 (radiometric, Eurofins). The data set is classed as biochemical. To be noted: conclusion. As for the experimental part:
as §1

The test system of data set [3] is subcutaneous xenograft tumor of human gastric cancer NCI-N87 cells. Briefly: In vivo pharmacodynamics, NCI-N87 subcutaneous xenograft (Assay Example 3). The arrangement: species or system mouse. As for the experimental part: (§2) Purpose of the assay: in vivo efficacy of the assay compound disclosed herein on subcutaneous xenograft tumor of human gastric cancer NCI-N87 cells in a BALB/c nude mouse model was evaluated.
Animals of the assay: female BALB/c nude mice, 6-8 weeks old, weighted 18-22 grams; supplier: Shanghai Ling Chang Biotechnology Co., Ltd.
Human gastric cancer NCI-N87 cells were cultured in monolayer in vitro. The culture conditions were RPMI-1640 medium plus 10% fetal bovine serum, 100 U/mL penicillin, 100 U/mL streptomycin and 2 mM glutamine, 37° C., 5% CO2. The passaging was performed by the conventional digestion with trypsin-EDTA twice a week. When the cell saturation was 80%-90%, the cells were collected, counted and inoculated.
0.2 mL (10×10^6) of NCI-N87 cells (PBS+Matrigel, 1:1) were inoculated subcutaneously on the right back of each nude mouse. When the average tumor volume reached 158 mm^3, administration to each group was started.
The assay compounds were formulated into 0.04 mg/mL and 0.08 mg/mL clear solution in the solvents of 10% NMP (N-methylpyrrolidone)+10% ethylene glycol stearate+80% water.
The assay index was to investigate whether tumor growth is inhibited, delayed or cured. Tumor diameter was measured twice a week with a vernier caliper. The calculation formula of tumor volume was: V=0.5a×b^2, wherein a and b represent the long and short diameters of tumor, respectively.
The antitumor efficacy of the compounds was evaluated by TGI (%) or tumor proliferation rate T/C (%). TGI (%) reflects tumor growth inhibition rate. […]
Statistical analysis included mean and standard error of mean (SEM) of tumor volume at each time point in each group (See Table 13 for specific data). […] The comparison between groups was analyzed by T-test, and the comparison among three or more groups was analyzed by one-way ANOVA. […]

Data set [4] has the same test system. Briefly: In vivo pharmacodynamics, NCI-N87 subcutaneous xenograft (Assay Example 4). Particulars: 0.5 mg/kg, compared with the vehicle control group. The arrangement: species or system mouse. As for the experimental part: as §2
Animals of the assay: female BALB/c nude mice, 6-8 weeks old, weighted 18-22 grams; supplier: shanghai sippr bk laboratory animals Ltd.
Human gastric cancer NCI-N87 cells were cultured in monolayer in vitro. The culture conditions were RPMI-1640 medium plus 10% fetal bovine serum, 100 U/mL penicillin, 100 μg/mL streptomycin, 37° C., 5% CO2. The passaging was performed by conventional digestion with trypsin-EDTA twice a week. When the cell saturation was 80%-90%, the cells were collected, counted and inoculated.
0.2 mL (10×10^6) of NCI-N87 cells (PBS+Matrigel, 1:1) were inoculated subcutaneously on the right back of each mouse. […]
The assay index was to investigate whether tumor growth is inhibited, delayed or cured. Tumor diameter was measured twice a week with a vernier caliper. […]
The antitumor efficacy of the compounds was evaluated by TGI (%) or tumor proliferation rate T/C (%). […]
Statistical analysis included the mean and standard error of mean (SEM) of tumor volume at each time point in each group (See Table 14 for specific data). […] The comparison between groups was analyzed by T-test, and the comparison among three or more groups was analyzed by one-way ANOVA. […]

Data set [5] has as its target T1, CYP2C9 (Homo sapiens, UniProt P11712).
T1 construct: in the assay of CYP enzyme activity in human liver microsome; from tissue; host or cells: human liver microsome
Briefly: Inhibition of CYP enzyme activity in human liver microsome, CYP2C9. The data set is classed as in vitro ADME. To be noted: versus Poziotinib. From the text: (§3) The results of the compound disclosed herein and the reference compound Poziotinib in the assay of CYP enzyme activity in human liver microsome were shown in the following table (Table 17).
(Liver microsomes are a subcellular fraction often used to study metabolism.)

Data set [6] concerns the target T2, CYP2D6 (Homo sapiens, UniProt P10635).
T2 construct: in the assay of CYP enzyme activity in human liver microsome; from tissue; host or cells: human liver microsome
Briefly: Inhibition of CYP enzyme activity in human liver microsome, CYP2D6. To be noted: versus Poziotinib. The data set is classed as in vitro ADME.
Description: as §3

These results are taken from US20220242851A1, “CRYSTAL FORM AND SALT OF QUINAZOLINE COMPOUND AND PREPARATION METHOD THEREOF” (SHENZHEN JINRUI FOUNDATION BIOTECH CO., LTD, priority 2019, published 2022).

T1 sequence (P11712 whole entry): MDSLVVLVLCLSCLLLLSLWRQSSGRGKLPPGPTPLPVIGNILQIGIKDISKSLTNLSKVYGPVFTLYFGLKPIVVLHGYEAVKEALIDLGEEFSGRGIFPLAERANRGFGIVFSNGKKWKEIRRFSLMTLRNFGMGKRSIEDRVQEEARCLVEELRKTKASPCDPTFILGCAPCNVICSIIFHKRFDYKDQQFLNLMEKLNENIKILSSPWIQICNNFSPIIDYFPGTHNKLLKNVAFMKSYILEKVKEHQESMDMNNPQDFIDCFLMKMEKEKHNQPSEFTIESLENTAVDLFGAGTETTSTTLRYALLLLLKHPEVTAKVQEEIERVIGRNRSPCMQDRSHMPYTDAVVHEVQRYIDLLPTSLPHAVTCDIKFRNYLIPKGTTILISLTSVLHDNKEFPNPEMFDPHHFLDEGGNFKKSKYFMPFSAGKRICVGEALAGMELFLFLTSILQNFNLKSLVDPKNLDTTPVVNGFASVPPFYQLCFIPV
T2 sequence (P10635 whole entry): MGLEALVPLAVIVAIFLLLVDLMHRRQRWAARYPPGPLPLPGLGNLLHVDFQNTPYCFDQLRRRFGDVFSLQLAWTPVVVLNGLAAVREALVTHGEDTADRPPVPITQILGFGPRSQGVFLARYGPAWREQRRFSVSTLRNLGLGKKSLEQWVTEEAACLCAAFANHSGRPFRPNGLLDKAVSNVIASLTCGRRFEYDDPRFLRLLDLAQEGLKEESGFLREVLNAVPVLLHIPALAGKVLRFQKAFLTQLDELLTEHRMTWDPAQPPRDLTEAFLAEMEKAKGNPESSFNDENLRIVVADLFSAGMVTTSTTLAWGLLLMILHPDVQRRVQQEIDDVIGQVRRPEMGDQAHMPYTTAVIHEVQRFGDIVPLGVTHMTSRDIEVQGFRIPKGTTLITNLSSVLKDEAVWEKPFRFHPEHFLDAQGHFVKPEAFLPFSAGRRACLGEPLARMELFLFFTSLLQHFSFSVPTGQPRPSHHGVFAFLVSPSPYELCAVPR
Chain of HER4(ErbB4) (Q15303 26-1308): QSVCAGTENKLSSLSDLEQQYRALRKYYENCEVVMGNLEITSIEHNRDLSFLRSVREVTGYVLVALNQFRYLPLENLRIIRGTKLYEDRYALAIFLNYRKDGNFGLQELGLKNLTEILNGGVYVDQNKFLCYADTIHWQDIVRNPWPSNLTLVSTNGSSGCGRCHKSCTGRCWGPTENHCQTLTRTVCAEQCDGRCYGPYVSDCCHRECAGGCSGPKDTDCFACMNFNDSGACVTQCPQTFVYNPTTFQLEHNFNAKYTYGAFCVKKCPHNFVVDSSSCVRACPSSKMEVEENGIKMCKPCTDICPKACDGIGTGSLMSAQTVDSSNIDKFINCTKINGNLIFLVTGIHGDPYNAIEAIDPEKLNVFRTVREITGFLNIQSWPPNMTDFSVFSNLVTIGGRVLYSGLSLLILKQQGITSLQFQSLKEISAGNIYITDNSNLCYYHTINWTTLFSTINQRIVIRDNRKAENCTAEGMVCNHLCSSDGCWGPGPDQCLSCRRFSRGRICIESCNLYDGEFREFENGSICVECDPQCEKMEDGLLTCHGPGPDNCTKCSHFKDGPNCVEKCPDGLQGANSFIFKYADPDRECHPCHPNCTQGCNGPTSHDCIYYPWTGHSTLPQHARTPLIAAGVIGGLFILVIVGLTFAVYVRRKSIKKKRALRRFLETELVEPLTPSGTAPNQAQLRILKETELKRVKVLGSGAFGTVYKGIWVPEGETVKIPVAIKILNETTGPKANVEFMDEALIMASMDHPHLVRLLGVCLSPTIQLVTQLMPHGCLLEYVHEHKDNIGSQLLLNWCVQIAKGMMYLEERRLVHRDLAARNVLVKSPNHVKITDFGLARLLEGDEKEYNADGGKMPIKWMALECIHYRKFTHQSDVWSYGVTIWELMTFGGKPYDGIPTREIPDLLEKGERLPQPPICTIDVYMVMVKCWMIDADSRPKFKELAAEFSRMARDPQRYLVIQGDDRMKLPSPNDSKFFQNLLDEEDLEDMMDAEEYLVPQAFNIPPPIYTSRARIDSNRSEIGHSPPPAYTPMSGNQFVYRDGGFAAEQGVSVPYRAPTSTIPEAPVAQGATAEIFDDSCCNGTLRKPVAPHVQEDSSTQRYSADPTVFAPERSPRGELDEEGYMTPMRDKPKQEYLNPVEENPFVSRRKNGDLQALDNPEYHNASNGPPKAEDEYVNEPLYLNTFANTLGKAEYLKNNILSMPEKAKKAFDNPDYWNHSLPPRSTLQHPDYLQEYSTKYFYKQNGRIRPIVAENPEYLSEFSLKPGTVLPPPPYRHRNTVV

For `C=CC(=O)N1[C@@H]2CC[C@H]1C[C@H](Nc1cc3c(Nc4ccc(Cl)c(Cl)c4F)ncnc3cc1OC)C2` [Compound of formula (I)], in data set [1], the “inhibitory activity on HER1 (in words)” value is listed as “significant inhibitory activity”. For the same compound, the “inhibitory activity on HER4 (in words)” value in data set [2] is “significant inhibitory activity”. The “tumor inhibitory effect (in words)” value in data set [3] (0.8 mg/kg, compared with the vehicle control group) is listed as “significant tumor inhibitory effect”; in data set [4], “significant tumor inhibitory effect”. Moreover, the “drug efficacy compared with Poziotinib (in words)” value in data set [3] (low-dose group (0.4 mg/kg)) was “comparable to or better than the reference compound Poziotinib”. The “activity on CYP2C9, times better than the reference compound” value in data set [5] was 2 times. In addition, in data set [6], the “activity on CYP2D6, times better than the reference compound” value was 6 times.
